Values joined by “and” are separate entries in the source; they are usually repeats but may differ in a detail not shown here. Identical values can stand only once. Inconclusive results and toxic doses are left out.
Test system: BDF1 mice, P388 leukemia ip, median survival T/C
Test: NCI In Vivo Anticancer Drug Screen. Data for tumor model P388 Leukemia (intraperitoneal) in B6D2F1 (BDF1) mice
Settings: endpoint: median survival time, higher = longer survival
Method in brief: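 Transplantable tumour in mice; compound vs vehicle dosing; survival scored; ratio of treated to control reported.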

[1] = dose: 50.0 mg/kg/injection, schedule: Q01DX009 (ip), vehicle: saline with Tween-80
[2] = dose: 100.0 mg/kg/injection, schedule: Q01DX009 (ip), vehicle: saline with Tween-80
[3] = dose: 100.0 mg/kg/injection, schedule: Q01DX009 (ip), vehicle: Klucel (hydroxypropylcellulose) (HPC)
[4] = dose: 200.0 mg/kg/injection, schedule: Q01DX009 (ip), vehicle: Klucel (hydroxypropylcellulose) (HPC)
[5] = dose: 400.0 mg/kg/injection, schedule: Q01DX009 (ip), vehicle: Klucel (hydroxypropylcellulose) (HPC)
[6] = dose: 100.0 mg/kg/injection, schedule: Q04DX003 (ip), vehicle: saline with Tween-80
[7] = dose: 200.0 mg/kg/injection, schedule: Q01DX009 (ip), vehicle: saline with Tween-80
[8] = dose: 200.0 mg/kg/injection, schedule: Q04DX003 (ip), vehicle: saline with Tween-80
[9] = dose: 400.0 mg/kg/injection, schedule: Q01DX009 (ip), vehicle: saline with Tween-80
[10] = dose: 400.0 mg/kg/injection, schedule: Q04DX003 (ip), vehicle: saline with Tween-80
[11] = dose: 100.0 mg/kg/injection, schedule: Q04DX003 (ip), vehicle: Klucel (hydroxypropylcellulose) (HPC)
[12] = dose: 200.0 mg/kg/injection, schedule: Q04DX003 (ip), vehicle: Klucel (hydroxypropylcellulose) (HPC)
[13] = dose: 400.0 mg/kg/injection, schedule: Q04DX003 (ip), vehicle: Klucel (hydroxypropylcellulose) (HPC)
[14] = dose: 12.0 mg/kg/injection, schedule: Q01DX009 (ip), vehicle: saline

SMILES: O=C(C=C(C(F)(F)F)C(F)(F)F)c1ccccc1Cl
- T/C (dose: 11.0 mg/kg/injection, schedule: Q01DX009 (ip), vehicle: saline with Tween-80): 109 % of control
- T/C (dose: 16.5 mg/kg/injection, schedule: Q01DX009 (ip), vehicle: saline with Tween-80): 118 % of control
- T/C (dose: 25.0 mg/kg/injection, schedule: Q01DX009 (ip), vehicle: saline with Tween-80): 118 % of control

SMILES: CC(=O)OC1CCC2(C)C(CCc3ccoc3)=C(C)C(=O)CC2C1(C)C (configuration not stated)
- T/C (dose: 10.0 mg/kg/injection, schedule: Q01DX009 (ip), vehicle: saline + alcohol): 105 % of control
- T/C (dose: 20.0 mg/kg/injection, schedule: Q01DX009 (ip), vehicle: saline + alcohol): 115 % of control
- T/C (dose: 40.0 mg/kg/injection, schedule: Q01DX009 (ip), vehicle: saline + alcohol): 105 % of control

SMILES: CCOc1ccc(NC(=S)N(C)C)cc1
- T/C [1]: 90 % of control
- T/C [2]: 86 % of control

SMILES: COc1ccc(CCN2CSC(=S)N(CCc3ccc(OC)c(OC)c3)C2)cc1OC
- T/C [3]: 100 % of control
- T/C [4]: 110 % of control
- T/C [5]: 94 % of control

SMILES: CCN(CC)CC(C)Nc1ccc(C)c2sc3ccccc3c(=O)c12 (configuration not stated)
- T/C (dose: 33.0 mg/kg/injection, schedule: Q04DX003 (ip), vehicle: saline sonified): 118 % of control
- T/C (dose: 44.0 mg/kg/injection, schedule: Q01DX009 (ip), vehicle: saline): 159 % of control
- T/C (dose: 66.0 mg/kg/injection, schedule: Q01DX009 (ip), vehicle: saline): 200 % of control and 209 % of control
- T/C (dose: 100.0 mg/kg/injection, schedule: Q01DX009 (ip), vehicle: saline): 190 % of control
- T/C (dose: 112.5 mg/kg/injection, schedule: Q04DX003 (ip), vehicle: saline sonified): 154 % of control
- T/C (dose: 300.0 mg/kg/injection, schedule: Q04DX003 (ip), vehicle: saline sonified): 163 % of control

SMILES: Cc1ccc(C(C#N)Nc2ccccc2)cc1 (configuration not stated)
- T/C [2]: 100 % of control
- T/C [6]: 100 % of control
- T/C [7]: 115 % of control
- T/C [8]: 100 % of control
- T/C [9]: 100 % of control
- T/C [10]: 104 % of control

SMILES: CCCCCCCCCCCCCCSCCSCCSCCCCCCCCCCCCCC
- T/C (dose: 25.0 mg/kg/injection, schedule: Q01DX001 (ip), vehicle: saline sonified): 86 % of control
- T/C (dose: 100.0 mg/kg/injection, schedule: Q01DX001 (ip), vehicle: saline sonified): 86 % of control

SMILES: CCCCNC(C)(C)C(SSS(=O)(=O)O)c1ccc(Cl)cc1 (configuration not stated)
- T/C [6]: 100 % of control
- T/C [8]: 100 % of control
- T/C [10]: 116 % of control

SMILES: O=C(O)C(=O)O.OO.OO.OO.[Nb]
- T/C (dose: 200.0 mg/kg/injection, schedule: Q01DX009 (ip), vehicle: saline): 86 % of control

SMILES: Clc1cc(Cl)c(I)c(Cl)c1
- T/C [2]: 92 % of control
- T/C [11]: 100 % of control
- T/C [7]: 89 % of control
- T/C [12]: 100 % of control
- T/C [9]: 96 % of control
- T/C [13]: 91 % of control

SMILES: CCC[N+](C)(C)CCCCOCCCC[N+](C)(C)CCC
- T/C (dose: 3.0 mg/kg/injection, schedule: Q01DX009 (ip), vehicle: saline): 88 % of control
- T/C (dose: 3.0 mg/kg/injection, schedule: Q04DX003 (ip), vehicle: saline): 100 % of control
- T/C (dose: 6.0 mg/kg/injection, schedule: Q01DX009 (ip), vehicle: saline): 92 % of control
- T/C (dose: 6.0 mg/kg/injection, schedule: Q04DX003 (ip), vehicle: saline): 116 % of control
- T/C (dose: 6.25 mg/kg/injection, schedule: Q04DX003 (ip), vehicle: saline): 113 % of control
- T/C [14]: 96 % of control
- T/C (dose: 12.0 mg/kg/injection, schedule: Q04DX003 (ip), vehicle: saline): 100 % of control
- T/C (dose: 12.5 mg/kg/injection, schedule: Q04DX003 (ip), vehicle: saline): 109 % of control

SMILES: CCC(=O)O[C@H]1CC[C@H]2[C@@H]3[C@@H](C)CC4=CC(=O)CC[C@]4(C)[C@H]3CC[C@]12C
- T/C [2]: 105 % of control
- T/C [7]: 95 % of control
- T/C [9]: 95 % of control

SMILES: COc1cc2cc(c1Cl)N(C)C(=O)CC(OC(=O)C(C)N(C)C(=O)C(C)C)C1(C)OC1C(C)C1CC(O)(NC(=O)O1)C(OC)/C=C/C=C(C)C2 (configuration not stated)
- T/C (dose: 0.2 micrograms/kg/injection, schedule: Q01DX009 (ip), vehicle: saline + alcohol): 165 % of control
- T/C (dose: 0.4 micrograms/kg/injection, schedule: Q01DX009 (ip), vehicle: saline + alcohol): 155 % of control
- T/C (dose: 0.8 micrograms/kg/injection, schedule: Q01DX009 (ip), vehicle: saline + alcohol): 190 % of control
- T/C (dose: 1.6 micrograms/kg/injection, schedule: Q01DX009 (ip), vehicle: saline + alcohol): 155 % of control
- T/C (dose: 6.2 micrograms/kg/injection, schedule: Q01DX009 (ip), vehicle: saline + alcohol): 155 % of control
- T/C (dose: 12.5 micrograms/kg/injection, schedule: Q01DX009 (ip), vehicle: saline + alcohol): 120 % of control

SMILES: CC(C)(C)NC(=O)NCc1cccnc1
- T/C [6]: 91 % of control
- T/C [8]: 95 % of control
- T/C [10]: 100 % of control

SMILES: CSc1nc(Cl)c(Br)c(Sc2nc(N)nc3nc[nH]c23)n1
- T/C (dose: 132.0 mg/kg/injection, schedule: Q04DX003 (ip), vehicle: saline with Tween-80): 120 % of control

SMILES: CCCCCCC(=O)/C=C/c1cccc(OC)c1
- T/C [1]: 90 % of control
- T/C [2]: 105 % of control
- T/C [7]: 105 % of control

SMILES: Cc1c[n+]2c3ccccc3c3ccccc3c2s1
- T/C (dose: 1.5 mg/kg/injection, schedule: Q01DX009 (ip), vehicle: Klucel (hydroxypropylcellulose) (HPC)): 95 % of control
- T/C (dose: 2.5 mg/kg/injection, schedule: Q01DX009 (ip), vehicle: Klucel (hydroxypropylcellulose) (HPC)): 100 % of control
- T/C (dose: 3.0 mg/kg/injection, schedule: Q01DX009 (ip), vehicle: Klucel (hydroxypropylcellulose) (HPC)): 90 % of control
- T/C (dose: 5.0 mg/kg/injection, schedule: Q01DX009 (ip), vehicle: Klucel (hydroxypropylcellulose) (HPC)): 122 % of control
- T/C (dose: 6.0 mg/kg/injection, schedule: Q01DX009 (ip), vehicle: Klucel (hydroxypropylcellulose) (HPC)): 86 % of control
- T/C (dose: 10.0 mg/kg/injection, schedule: Q01DX009 (ip), vehicle: Klucel (hydroxypropylcellulose) (HPC)): 118 % of control
- T/C (dose: 10.0 mg/kg/injection, schedule: Q04DX003 (ip), vehicle: Klucel (hydroxypropylcellulose) (HPC)): 118 % of control
- T/C (dose: 20.0 mg/kg/injection, schedule: Q04DX003 (ip), vehicle: Klucel (hydroxypropylcellulose) (HPC)): 95 % of control
- T/C (dose: 80.0 mg/kg/injection, schedule: Q04DX003 (ip), vehicle: Klucel (hydroxypropylcellulose) (HPC)): 90 % of control
- T/C [12]: 90 % of control

SMILES: CC(=O)[C@@]1(O)CC[C@H]2[C@@H]3C[C@H](C)C4=CC(=O)CC[C@]4(C)[C@H]3[C@@H](O)C[C@@]21C
- T/C [6]: 109 % of control
- T/C [7]: 122 % of control
- T/C [8]: 109 % of control
- T/C [9]: 90 % of control
- T/C [10]: 118 % of control

SMILES: CN(C(=O)c1ccccc1)N(C)C(=O)c1ccccc1
- T/C (dose: 12.5 mg/kg/injection, schedule: Q04DX003 (ip), vehicle: Klucel (hydroxypropylcellulose) (HPC)): 90 % of control
- T/C (dose: 25.0 mg/kg/injection, schedule: Q04DX003 (ip), vehicle: Klucel (hydroxypropylcellulose) (HPC)): 109 % of control
- T/C (dose: 50.0 mg/kg/injection, schedule: Q04DX003 (ip), vehicle: Klucel (hydroxypropylcellulose) (HPC)): 100 % of control

SMILES: C[n+]1c2cc(N)ccc2cc2ccc(N)cc21
- T/C (dose: 8.0 mg/kg/injection, schedule: Q01DX009 (ip), vehicle: saline): 152 % of control
- T/C [14]: 167 % of control

SMILES: CCOC(=O)c1sc(NC(C)=O)c(C(=O)OCC)c1C
- T/C [3]: 100 % of control
- T/C [4]: 100 % of control
- T/C [5]: 100 % of control

SMILES: Cc1ccc(NCC(O)CN2CCOCC2)cc1 (configuration not stated)
- T/C [11]: 108 % of control

SMILES: CC(C)(C)CC(C)(C)c1ccc(OCCOc2ccccc2NC(=O)CC(=O)c2cccc([N+](=O)[O-])c2)cc1
- T/C (dose: 100.0 mg/kg/injection, schedule: Q01DX001 (ip), vehicle: Klucel (hydroxypropylcellulose) (HPC)): 95 % of control
- T/C (dose: 200.0 mg/kg/injection, schedule: Q01DX001 (ip), vehicle: Klucel (hydroxypropylcellulose) (HPC)): 95 % of control
- T/C (dose: 400.0 mg/kg/injection, schedule: Q01DX001 (ip), vehicle: Klucel (hydroxypropylcellulose) (HPC)): 95 % of control

SMILES: O=C(O)/C(Cc1cnc2ccccc2n1)=N\O
- T/C [6]: 95 % of control
- T/C [8]: 100 % of control
- T/C [10]: 91 % of control

SMILES: C=CN1C(=O)NC(C)(CC(C)C)C1=O (configuration not stated)
- T/C [2]: 93 % of control
- T/C [7]: 104 % of control
- T/C [9]: 104 % of control

SMILES: CCOC(=O)C(=O)Cc1sccc1[N+](=O)[O-]
- T/C [3]: 105 % of control
- T/C [11]: 86 % of control
- T/C [4]: 100 % of control
- T/C [5]: 105 % of control
- T/C [13]: 91 % of control

From PubChem BioAssay AID328 (DTP/NCI, 2004)
